Paper PMC8536644, “Enigmatic mechanism of the N-vinylpyrrolidone hepatocarcinogenicity in the rat” (Archives of Toxicology, 2021)
Several values for one entry are separate records, joined by “and”; a condition that tells them apart may be missing. Equal values may be shown once.

Experiments:
primary rat hepatocytes = assay: Gene expression analysis (Affymetrix) in cultivated rat hepatocytes; type: cell-based; details: 24 h; for Nrg1 upregulation / PDK4 upregulation / Atf3 upregulation: adj. p < 0.001
Method: Isolation and cultivation of primary rat hepatocytes was performed according to a published standard operation procedure (Godoy et al. [2013]) and Affymetrix gene array analysis as described in Grinberg et al. ([2018]). Briefly, male Wistar rats with a body weight of 220–300 g were purchased from Charles River (Sulzfeld, Germany). The animals had free access to food (sniff, Soest, Germany) and water and were kept under controlled temperature (18–26 °C), humidity (30–70%) and lighting (12 h light/dark circle). Prior to any experimental procedure, the animals were acclimated for a minimum of 6 days. This study was approved by the local committee for the welfare of experimental animals and was performed in accordance with national legislation. RNA was extracted from cultivated primary hepatocytes as described by Heise et al. ([2012]). Incubation of the cultivated rat hepatocytes with the test compounds was performed for 24 h. Rat hepatocytes were cultivated as sandwich cultures using 6well dishes. Three independent incubations with the test compound were performed. For Affymetrix gene chip analysis samples isolated from the 6-well dishes were stored in RNAprotect reagent from Qiagen until isolation of RNA. The RNA was quantified using a NanoDrop N-1000 spectrophotometer, and the integrity of RNA was confirmed with a standard sense automated gel electrophoresis system. Samples were used for transcriptional profiling only when their RNA quality indicator (RQI) number was > 8. First-strand cDNA was synthesized from 100 ng total RNA using an oligo-dT primer with an attached T7 promoter sequence, followed by the complementary second strand. The double-stranded cDNA molecule was used for in vitro transcription (IVT, standard Affymetrix procedure) using Genechip 3′ IVT Express Kit. During synthesis of the aRNA (amplified RNA, also commonly referred to as cRNA), a biotinylated nucleotide analogue was incorporated, which served as a label for the message. After amplification, aRNA was purified with magnetic beads and 15 µg of aRNA was fragmented with the fragmentation buffer as per the manufacturer’s instructions. Then 12.5 µg fragmented aRNA was hybridized with Affymetrix Rat Genome 230 2.0 Arrays. The chips were placed in a GeneChip Hybridization Oven-645 for 16 h at 60 rpm and 45 °C. For staining and washing, Affymetrix HWS kits were used on a Genechip Fluidics Station-450. For scanning, the Affymetrix GeneChip Scanner-3000-7G was used, and the image and quality control assessments were performed with Affymetrix GCOS software. All reagents and instruments were acquired from Affymetrix (Affymetrix, Santa Clara, CA, USA). The generated CEL files were used for further statistical analysis as described in Grinberg et al., 2018).

rat liver [1] = assay: Glutathione recycling assay (tGSH, GSSG) in liver; type: in vivo; details: for GSH (GSH recycling assay), individual animal / GSSG, individual animal / tGSH, individual animal / GSH (GSH recycling assay), group (mean ± SD) / GSSG, group (mean ± SD) / tGSH, group (mean ± SD): rat liver; for GSH (GSH recycling assay), group (mean ± SD) / GSSG, group (mean ± SD) / tGSH, group (mean ± SD): n = 6;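 for GSSG, group (mean ± SD): Nanomoles per gram liver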;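 for GSSG, individual animal: Nanomoles per gram liver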;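 for Mean GSSG concentration: Nanomoles per gram liver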
Method: Glutathione recycling assay was adapted from the method described by Gallagher ([1994]) and performed using the 14 000 g supernatant fraction derived from the 5-SSA-treated liver homogenate of the NVP-exposed male Wistar rats as described above under “Non-protein-bound sulfhydryl groups”. The obtained samples were diluted fivefold with the 5% 5-SSA solution.
For determination of total glutathione (tGSH, i.e. GSH + GSSG) a GSH control (640 µM in 5% 5-SSA, diluted by a factor of 4 for application in the assay) and a tGSH control (200 µM in 5% 5-SSA, containing 10% GSSG) were treated the same way as the samples. To 5 µL of sample, controls as well as GSH standards (dissolved in 5% 5-SSA solution) 190 µL tGSH master mix, consisting of phosphate/EDTA buffer (125 mM KH2PO4/7 mM EDTA, pH 7.5), 0.4 mM NADPH and 0.5 U/L glutathione reductase suspension, were added. Determinations were performed in triplicates. The reaction was started by adding 5 µL of 24 mM DTNB in methanol. The absorption at λ = 412 nm was measured every 60 s for 5 min.
For determination of GSSG a control (20 μM GSSG, 160 μM GSH) was treated the same way as the samples. 125 µL sample, control, GSSG standards and blank, respectively, were combined with 5 µL 2-vinylpyridine (Sigma Aldrich, Steinheim, Germany). 20 µL of […] triethylamine was pipetted to the upper rim of the vessel such that after mixing the pH value was between 7 and 7.5 and reaction was allowed to proceed in the thermomixer at 600 rpm for 1 h at 26 °C in order to derivatize the GSH in the sample. The determination of GSSG was then performed in analogy to the determination of tGSH described above. The absorption at λ = 412 nm was measured every 60 s for 10 min.

rat liver [2] = assay: Liver histology, Oil Red O staining; type: in vivo; details: high dose group (20 ppm)
Method: ORO staining was performed essentially according to Lillie and Ashburn ([1943]), specifically under the following conditions:
Parts of the frozen (− 80 °C) livers from rats treated with 0, 5, 10 or 20 ppm NVP were soaked in tap water and then thoroughly frozen at − 40 °C. Subsequently they were cut at -10 to -15 °C into slices of 12–20 µm and stored in water until starting the staining procedure. The slices were then left for approximately 5 min in 60% isopropanol, subsequently stained for 10–12 min in ORO solution (5 g ORO dissolved in 1 L isopropanol, to this solution added 400 mL H2O, left at room temperature for 24 h and then filtered) and subsequently differentiated by immersing 2–3 times into 60% isopropanol. Afterwards they were left in water until they collected at the surface. Finally the slices were stained for 3 min in hematoxylin solution (1 g hematoxylin, 50 g KAl(SO4)2, 50 g chloral hydrate, 1 g citric acid/L H2O, then for maturation 0.2 g NaIO3/L). Subsequently they were left at least 10 min in water. Finally, the slices were transferred to microscope slides and covered with 40–60 °C warm Kaiser’s glycerol gelatin.

[3] = 5 ppm NVP inhalation, animals 7-12
[4] = 10 ppm NVP inhalation, animals 13-18
[5] = 20 ppm NVP inhalation, animals 19-24

C=CN1CCCC1=O [NVP, N-vinylpyrrolidone]
Nrg1 upregulation (primary rat hepatocytes; 40 µM): 3.5 fold
PDK4 upregulation (primary rat hepatocytes; 40 µM): 3.5 fold
Atf3 upregulation (primary rat hepatocytes; 200 µM): 5.1
Nrg1 upregulation (primary rat hepatocytes; 200 µM): 6.2 fold
PDK4 upregulation (primary rat hepatocytes; 200 µM): 5.9 fold
Atf3 upregulation (primary rat hepatocytes; 1000 µM): 7.1
Nrg1 upregulation (primary rat hepatocytes; 1000 µM): 7.3 fold
PDK4 upregulation (primary rat hepatocytes; 1000 µM): 8.8 fold
Lowest concentration with expression changes (PCA) (primary rat hepatocytes; 8, 40, 200 and 1000 µM tested): 8 µM
GSH/GSSG ratio (rat liver [1]; 5 ppm): 42.2 ± 18.4
Mean GSSG concentration (rat liver [1]; 5 ppm): 116 ± 32 nmol/g liver
Proportion of reduced glutathione GSH within total glutathione tGSH (rat liver [1]; 5 ppm): 95.0% ± 1.4%
GSH/GSSG ratio (rat liver [1]; 10 ppm): 31.2 ± 4.6
Mean GSSG concentration (rat liver [1]; 10 ppm): 135 ± 12 nmol/g liver
Proportion of reduced glutathione GSH within total glutathione tGSH (rat liver [1]; 10 ppm): 93.9% ± 0.8%
GSH/GSSG ratio (rat liver [1]; 20 ppm): 30.0 ± 4.6
Mean GSSG concentration (rat liver [1]; 20 ppm): 136 ± 22 nmol/g liver
Proportion of reduced glutathione GSH within total glutathione tGSH (rat liver [1]; 20 ppm): 93.6% ± 0.9%
GSH concentration (GSH recycling assay), range (rat liver [1]; NVP-exposed male rats, 5-20 ppm): 3.06–5.48 µmol/g liver
GSH (GSH recycling assay), individual animal (rat liver [1]; [3]): 3.84 µmol/g liver and 5.48 µmol/g liver and 4.63 µmol/g liver and 3.93 µmol/g liver and 5.04 µmol/g liver and 4.00 µmol/g liver
GSSG, individual animal (rat liver [1]; [3]): 133 nmol/g liver and 71 nmol/g liver and 144 nmol/g liver and 114 nmol/g liver and 149 nmol/g liver and 87 nmol/g liver
tGSH, individual animal (rat liver [1]; [3]): 4.10 µmol/g liver and 5.63 µmol/g liver and 4.92 µmol/g liver and 4.16 µmol/g liver and 5.33 µmol/g liver and 4.17 µmol/g liver
GSH (GSH recycling assay), group (mean ± SD) (rat liver [1]; 5 ppm NVP inhalation): 4.49 ± 0.68 µmol/g liver
GSSG, group (mean ± SD) (rat liver [1]; 5 ppm NVP inhalation): 116 ± 32 nmol/g liver
tGSH, group (mean ± SD) (rat liver [1]; 5 ppm NVP inhalation): 4.72 ± 0.67 µmol/g liver
GSH (GSH recycling assay), individual animal (rat liver [1]; [4]): 3.44 µmol/g liver and 3.95 µmol/g liver and 4.70 µmol/g liver and 4.98 µmol/g liver and 4.41 µmol/g liver and 3.65 µmol/g liver
GSSG, individual animal (rat liver [1]; [4]): 132 nmol/g liver and 120 nmol/g liver and 151 nmol/g liver and 147 nmol/g liver and 126 nmol/g liver
tGSH, individual animal (rat liver [1]; [4]): 3.70 µmol/g liver and 4.21 µmol/g liver and 4.94 µmol/g liver and 5.28 µmol/g liver and 4.70 µmol/g liver and 3.91 µmol/g liver
GSH (GSH recycling assay), group (mean ± SD) (rat liver [1]; 10 ppm NVP inhalation): 4.19 ± 0.61 µmol/g liver
GSSG, group (mean ± SD) (rat liver [1]; 10 ppm NVP inhalation): 135 ± 12 nmol/g liver
tGSH, group (mean ± SD) (rat liver [1]; 10 ppm NVP inhalation): 4.46 ± 0.62 µmol/g liver
GSH (GSH recycling assay), individual animal (rat liver [1]; [5]): 4.45 µmol/g liver and 4.57 µmol/g liver and 3.06 µmol/g liver and 3.48 µmol/g liver and 4.31 µmol/g liver and 4.35 µmol/g liver
GSSG, individual animal (rat liver [1]; [5]): 151 nmol/g liver and 130 nmol/g liver and 106 nmol/g liver and 142 nmol/g liver and 121 nmol/g liver and 167 nmol/g liver
tGSH, individual animal (rat liver [1]; [5]): 4.75 µmol/g liver and 4.83 µmol/g liver and 3.27 µmol/g liver and 3.77 µmol/g liver and 4.55 µmol/g liver and 4.68 µmol/g liver
GSH (GSH recycling assay), group (mean ± SD) (rat liver [1]; 20 ppm NVP inhalation): 4.04 ± 0.62 µmol/g liver
GSSG, group (mean ± SD) (rat liver [1]; 20 ppm NVP inhalation): 136 ± 22 nmol/g liver
Lipid-staining (oil red O) of centrilobular hepatocellular fatty change (rat liver [2]): positive for only one male and one female animal
